{"source": "EPA's ToxRefDB 2", "key": {"[1]": {"system": "mouse", "conditions": "Combined chronic toxicity/carcinogenicity, other, Oral, Feed, dose end: 24 month, group: systemic"}, "[2]": {"system": "rat", "conditions": "Prenatal developmental toxicity study, wistar, Oral, Gavage/Intubation, dose end: 16 GD"}, "[3]": {"system": "mouse", "conditions": "Carcinogenicity, other, Oral, Feed, dose end: 24 month, group: systemic"}, "[4]": {"system": "mouse", "conditions": "Subchronic oral toxicity in rodents, cd1, Feed, dose end: 13 week, group: systemic, systemic / hematology / hemoglobin (hgb) / hemoglobin (hgb) + systemic / hematology / mean corpuscular hemoglobin concentration (mchc) / …"}, "[5]": {"system": "dog", "conditions": "Chronic toxicity, beagle, Oral, Feed, dose end: 54 week, group: systemic"}, "[6]": {"system": "rat", "conditions": "Combined chronic toxicity/carcinogenicity, sprague dawley, Oral, Feed, dose end: 24 month, group: systemic"}, "[7]": {"system": "rat", "conditions": "Subchronic oral toxicity in rodents, sprague dawley, Feed, dose end: 90 day"}, "[8]": {"system": "rat", "conditions": "Combined chronic toxicity/carcinogenicity; sprague dawley; Oral; Feed; dose end: 104 week; group: systemic; systemic / in life observation / body weight / body weight gain + systemic / pathology microscopic / blood vessel / aneurysm + systemic / …"}, "[9]": {"system": "rat", "conditions": "Carcinogenicity; other; Oral; Feed; dose end: 82 week; group: systemic; systemic / in life observation / clinical signs / fur (altered appearance) + systemic / in life observation / clinical signs / hunched …"}, "[10]": {"system": "mouse", "conditions": "Subchronic oral toxicity in rodents, swiss albino, Gavage/Intubation, dose end: 14 day, group: systemic"}, "[11]": {"system": "rat", "conditions": "Multigenerational reproductive toxicity study, sprague dawley, Oral, Feed, dose end: 2 generation"}, "[12]": {"conditions": "systemic / in life observation / mortality / mortality"}, "[13]": {"conditions": "systemic / in life observation / mortality / mortality + systemic / in life observation / body weight / body weight gain"}, "[14]": {"conditions": "group: developmental, developmental / developmental malformation / bone / fragmented + systemic / in life observation / clinical signs / reduced body size"}, "[15]": {"conditions": "group: maternal, systemic / in life observation / body weight / body weight gain + systemic / in life observation / clinical signs / convulsions + systemic…"}, "[16]": {"conditions": "systemic / pathology gross / urinary bladder / thickened"}, "[17]": {"conditions": "systemic / in life observation / clinical signs / [other] + systemic / in life observation / body weight / body weight + systemic / in life …"}, "[18]": {"conditions": "systemic / in life observation / clinical signs / [other] + systemic / in life observation / body weight / body weight gain + systemic / in …"}, "[19]": {"conditions": "systemic / in life observation / body weight / body weight gain + systemic / pathology gross / kidney / enlarged + systemic / pathology …"}, "[20]": {"conditions": "group: cholinesterase, cholinesterase / cholinesterase / cholinesterase / plasma cholinesterase (che)"}, "[21]": {"conditions": "group: systemic, systemic / hematology / mean corpuscular hemoglobin concentration (mchc) / mean corpuscular hemoglobin concentration (mchc) + systemic / …"}, "[22]": {"conditions": "group: systemic, systemic / pathology microscopic / kidney / pigmentation"}, "[23]": {"conditions": "systemic / hematology / sulphemoglobin / sulphemoglobin"}, "[24]": {"conditions": "systemic / hematology / sulphemoglobin / sulphemoglobin + systemic / hematology / heinz body / heinz body + systemic / hematology / …"}, "[25]": {"conditions": "group: offspring, systemic / in life observation / body weight / offspring (pup) weight"}, "[26]": {"conditions": "group: parental, systemic / hematology / lymphocyte / lymphocyte + systemic / hematology / platelet / platelet + systemic / organ weight / spleen / nos + …"}}, "data": [{"smiles": "O=S1OCC2C(CO1)C1(Cl)C(Cl)=C(Cl)C2(Cl)C1(Cl)Cl", "note": "(stereo unspecified) [Endosulfan]", "values": [{"measurement": "NEL", "setting": "[1]; [12]", "value": 0.9, "unit": "mg/kg/day"}, {"measurement": "LEL", "setting": "[1]; [13]", "value": 2.7, "unit": "mg/kg/day"}, {"measurement": "LOAEL", "setting": "[1]; [13]", "value": "> 2.7", "unit": "mg/kg/day"}, {"measurement": "NOAEL", "setting": "[1]; [13]", "value": "≥ 2.7", "unit": "mg/kg/day"}, {"measurement": "LEL", "setting": "[2]; [14]", "value": 6, "unit": "mg/kg/day"}, {"measurement": "LOAEL", "setting": "[2]; [14]", "value": 6, "unit": "mg/kg/day"}, {"measurement": "NEL", "setting": "[2]; [14]", "value": 2, "unit": "mg/kg/day"}, {"measurement": "NOAEL", "setting": "[2]; [14]", "value": 2, "unit": "mg/kg/day"}, {"measurement": "LEL", "setting": "[2]; [15]", "value": 6, "unit": "mg/kg/day"}, {"measurement": "LOAEL", "setting": "[2]; [15]", "value": 6, "unit": "mg/kg/day"}, {"measurement": "NEL", "setting": "[2]; [15]", "value": 2, "unit": "mg/kg/day"}, {"measurement": "NOAEL", "setting": "[2]; [15]", "value": 2, "unit": "mg/kg/day"}, {"measurement": "LOAEL", "setting": "[3]; [12]", "value": 2.6, "unit": "mg/kg/day"}, {"measurement": "NOAEL", "setting": "[3]; systemic / in life observation / mortality / mortality + systemic / pathology gross / urinary bladder / thickened", "value": 0.9, "unit": "mg/kg/day"}, {"measurement": "LEL", "setting": "[3]; [16]", "value": 0.3, "unit": "mg/kg/day"}, {"measurement": "NEL", "setting": "[3]; [16]", "value": "< 0.3", "unit": "mg/kg/day"}, {"measurement": "LEL", "setting": "[4]", "value": 0.27, "unit": "mg/kg/day"}, {"measurement": "LOAEL", "setting": "[4]", "value": 0.27, "unit": "mg/kg/day"}, {"measurement": "NEL", "setting": "[4]", "value": "< 0.27", "unit": "mg/kg/day"}, {"measurement": "NOAEL", "setting": "[4]", "value": "< 0.27", "unit": "mg/kg/day"}, {"measurement": "NEL", "setting": "[5]; [17]", "value": 0.25, "unit": "mg/kg/day"}, {"measurement": "NOAEL", "setting": "[5]; [17]", "value": 0.25, "unit": "mg/kg/day"}, {"measurement": "LEL", "setting": "[5]; [18]", "value": 0.75, "unit": "mg/kg/day"}, {"measurement": "LOAEL", "setting": "[5]; [18]", "value": 0.75, "unit": "mg/kg/day"}, {"measurement": "NEL", "setting": "[6]; systemic / in life observation / body weight / body weight gain + systemic / pathology gross / kidney / enlarged", "value": 0.75, "unit": "mg/kg/day"}, {"measurement": "LEL", "setting": "[6]; [19]", "value": 3.75, "unit": "mg/kg/day"}, {"measurement": "LOAEL", "setting": "[6]; [19]", "value": "> 3.75", "unit": "mg/kg/day"}, {"measurement": "NOAEL", "setting": "[6]; [19]", "value": "≥ 3.75", "unit": "mg/kg/day"}, {"measurement": "LEL", "setting": "[7]; [20]", "value": 18, "unit": "mg/kg/day"}, {"measurement": "LOAEL", "setting": "[7]; [20]", "value": "> 18", "unit": "mg/kg/day"}, {"measurement": "NEL", "setting": "[7]; [20]", "value": 3, "unit": "mg/kg/day"}, {"measurement": "NOAEL", "setting": "[7]; [20]", "value": "≥ 18", "unit": "mg/kg/day"}, {"measurement": "LOAEL", "setting": "[7]; [21]", "value": 1.5, "unit": "mg/kg/day"}, {"measurement": "NOAEL", "setting": "[7]; [21]", "value": 0.5, "unit": "mg/kg/day"}, {"measurement": "LEL", "setting": "[7]; [22]", "value": 0.5, "unit": "mg/kg/day"}, {"measurement": "NEL", "setting": "[7]; [22]", "value": "< 0.5", "unit": "mg/kg/day"}, {"measurement": "LEL", "setting": "[8]", "value": 2.9, "unit": "mg/kg/day"}, {"measurement": "LOAEL", "setting": "[8]", "value": 2.9, "unit": "mg/kg/day"}, {"measurement": "NEL", "setting": "[8]", "value": 0.6, "unit": "mg/kg/day"}, {"measurement": "NOAEL", "setting": "[8]", "value": 0.6, "unit": "mg/kg/day"}, {"measurement": "LEL", "setting": "[9]", "value": 11.2, "unit": "mg/kg/day"}, {"measurement": "LOAEL", "setting": "[9]", "value": "> 22.2", "unit": "mg/kg/day"}, {"measurement": "NEL", "setting": "[9]", "value": "< 11.2", "unit": "mg/kg/day"}, {"measurement": "NOAEL", "setting": "[9]", "value": "≥ 22.2", "unit": "mg/kg/day"}]}, {"smiles": "O=C(NC(=O)c1c(F)cccc1F)Nc1ccc(Cl)cc1", "note": "[Diflubenzuron]", "values": [{"measurement": "LEL", "setting": "[10]; [23]", "value": 200, "unit": "mg/kg/day"}, {"measurement": "LOAEL", "setting": "[10]; [23]", "value": 200, "unit": "mg/kg/day"}, {"measurement": "NEL", "setting": "[10]; [24]", "value": 40, "unit": "mg/kg/day"}, {"measurement": "NOAEL", "setting": "[10]; [24]", "value": 40, "unit": "mg/kg/day"}, {"measurement": "LEL", "setting": "[11]; [25]", "value": 3800, "unit": "mg/kg/day"}, {"measurement": "LOAEL", "setting": "[11]; [25]", "value": 3800, "unit": "mg/kg/day"}, {"measurement": "NEL", "setting": "[11]; [25]", "value": 360, "unit": "mg/kg/day"}, {"measurement": "NOAEL", "setting": "[11]; [25]", "value": 360, "unit": "mg/kg/day"}, {"measurement": "LEL", "setting": "[11]; [26]", "value": 36, "unit": "mg/kg/day"}, {"measurement": "LOAEL", "setting": "[11]; [26]", "value": 36, "unit": "mg/kg/day"}, {"measurement": "NEL", "setting": "[11]; [26]", "value": "< 36", "unit": "mg/kg/day"}, {"measurement": "NOAEL", "setting": "[11]; [26]", "value": "< 36", "unit": "mg/kg/day"}]}]}
